In article PMC12207908, “The broad‐spectrum antimicrobial peptide BMAP‐27B potentiates carbapenems against NDM‐producing pathogens in food animals” (mLife, 2025):
No end group written: not given here.

Key:
Acinetobacter baumannii = format: cell-based
Protocol: The MIC of BMAP‐27B and other antibiotics was determined using the broth microdilution method, following the guidelines established by the Clinical and Laboratory Standards Institute (CLSI). Briefly, the bacterial cultures were grown to the logarithmic growth phase and subsequently diluted in Mueller–Hinton broth (MHB) to achieve a final concentration of 1 × 10^6 CFU/ml. BMAP‐27B and the other antibiotics were prepared in twofold serial dilutions in MHB and mixed with an equal volume of bacterial suspension in 96‐well polypropylene microtiter plates.

[1] = format: binding; settings: pH 7.4
Protocol: The detailed steps of molecular docking are provided in the Supporting Information. Microcalorimetric experiments were conducted to examine the interaction between BMAP‐27B and the divalent cation zinc (Zn^2+) using ITC to determine the binding affinity of BMAP‐27B for Zn^2+. Both BMAP‐27B and Zn^2+ were dissolved in PBS (pH 7.4). Before the experiment, all samples were degassed in a sonication bath for 10 min. At 25°C, Zn^2+ was sequentially injected into the calorimetric cell containing BMAP‐27B, with a total of 25 injections performed, allowing for a 180‐s equilibration interval between injections. The resulting data were analyzed using software to calculate K d.

CREC6 = format: in vitro ADME, Escherichia coli
Protocol: (§1) The antibacterial activity of the treated peptide was determined using CREC6 and CRKP2 as models. Bacterial colony survival was quantified by measuring the absorbance at 600 nm using a microplate reader. The activity of the peptide was also determined in the presence of NaCl to assess its salt sensitivity, with a final NaCl concentration of 400 mM. […] The bactericidal efficacy of BMAP‐27B against bacteria in SIF or SGF was evaluated using the plate counting method at different time points.

BALB/c mice = test: In vivo biocompatibility; settings: 5, 10, and 20 mg/kg intraperitoneal, once daily
Protocol: Male BALB/c mice (6–8 weeks of age, 18 ± 2 g) were purchased from Tengxin Biotechnology Co., Ltd., for the animal studies. Healthy male BALB/c mice were randomly divided into four groups, with six mice per group. Mice in the three experimental groups received intraperitoneal injections of peptide solutions at doses of 5, 10, and 20 mg/kg, while the control group received injections of PBS. Injections were administered once daily for five consecutive days, and the body weight of each mouse was recorded daily. On the sixth day, the mice were euthanized under deep anesthesia and blood samples were collected for biochemical analysis, including AST, CREA, UREA, and ALT. The livers and kidneys were subsequently weighed, fixed in 4% paraformaldehyde, and subjected to histopathological examination using H&E staining.

bacterial suspension = test: Antimicrobial activity in varying concentrations of proteases and serum; format: in vitro ADME; settings: trypsin or proteinase K, 1:1 (v/v) incubation 1 h, diluted to 2×MIC, then 18-24 h at 37℃ with bacteria (Figure S1)
Protocol: The above mixture was added to the bacterial suspension and incubated at 37℃ for 18-24 hours. Finally, the absorbance of […] was measured and used to calculate the survival rate of bacteria.

CREC6 and CRKP2 = format: in vitro ADME, Escherichia coli and Klebsiella pneumoniae
Protocol: as §1

Sequence: GRFKRLRKKLKKLFKKLSPVIPLLHLG [BMAP-27B]
- MIC (Acinetobacter baumannii): ≤ 6.250 µg/mL
- Kd [1]: 31.36 µM
- activity in simulated intestinal fluid (SIF) (CREC6): no activity
- viable bacterial count after incubation with simulated gastric fluid (SGF) (CREC6): lower than that of the control group
- relative weights of the heart, liver, spleen, and kidneys (BALB/c mice): no significant differences
- protease concentration resulting in loss of activity (bacterial suspension): above 200 μg/ml
- efficacy after co‐incubation with fetal bovine serum (CREC6 and CRKP2): maintained considerable efficacy
